From patent publication US20100298141A1, “SUBSTITUTED PYRIDINE N-OXIDE HERBICIDES” (E. I. DU PONT DE NEMOURS AND COMPANY, priority 2007, published 2010)

What was measured:
catchweed bedstraw = test: Test C pre-/postemergence test; type: in vivo, Galium aparine
How it was run: (§1)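 Seeds were planted and treated preemergence with test chemical in a non-phytotoxic solvent mixture containing surfactant. Postemergence applications of the same formulation went onto plants 2 to 18 cm tall (1- to 4-leaf stage). A dash marks no test result.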

kochia = test: Test C pre-/postemergence test; type: in vivo, Kochia scoparia
How it was run: as §1

blackgrass = test: Test C pre-/postemergence test; type: in vivo, Alopecurus myosuroides
How it was run: as §1

crabgrass = test: Test C pre-/postemergence test; type: in vivo, Digitaria sanguinalis
How it was run: as §1

rice = test: Test C flooded paddy test; type: in vivo, Oryza sativa; conditions: Flood
How it was run: (§2)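 Visual injury ratings against untreated controls, taken 13 to 15 days after compound was added to paddy water standing 3 cm above the soil.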

wheat = test: Test C pre-/postemergence test; type: in vivo, Triticum aestivum
How it was run: as §1

corn = test: Test A pre-/postemergence greenhouse test; type: in vivo, Zea mays; conditions: for Corn plant response rating: 0 to 100 scale
How it was run: (§3)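 Untreated controls served as the reference for visual injury ratings taken about ten days after spraying. The non-phytotoxic solvent/surfactant formulation was applied preemergence to seeded loam and sand and postemergence to plants two to ten cm high.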

redroot pigweed = test: Test A pre-/postemergence greenhouse test; type: in vivo, Amaranthus retroflexus; conditions: for Pigweed plant response rating: 0 to 100 scale
How it was run: as §3

wild oat = test: Test C pre-/postemergence test; type: in vivo, Avena fatua
How it was run: as §1

barnyardgrass = test: Test C flooded paddy test; type: in vivo, Echinochloa crus-galli; conditions: Flood
How it was run: as §2

velvetleaf = test: Test C pre-/postemergence test; type: in vivo, Abutilon theophrasti
How it was run: as §1

pigweed = test: Test C pre-/postemergence test; type: in vivo, Amaranthus retroflexus
How it was run: as §1

duck salad = test: Test C flooded paddy test; type: in vivo, Heteranthera limosa; conditions: Flood
How it was run: as §2

[1] = system: common (oilseed) sunflower; test: Test C pre-/postemergence test; type: in vivo, Helianthus annuus
How it was run: as §1

Surinam grass = test: Test C pre-/postemergence test; type: in vivo, Brachiaria decumbens
How it was run: as §1

bermudagrass = test: Test C pre-/postemergence test; type: in vivo, Cynodon dactylon
How it was run: as §1

eastern black nightshade = test: Test C pre-/postemergence test; type: in vivo, Solanum ptycanthum
How it was run: as §1

[2] = 62 g ai/ha, Preemergence, scale 0 to 100
[3] = 125 g ai/ha, preemergence, scale 0 (no effect) to 100 (complete control)
[4] = Preemergence, 31 g ai/ha, scale 0 to 100 (0 no effect, 100 complete control)
[5] = preemergence, 250 g ai/ha, scale 0 (no effect) to 100 (complete control)
[6] = 62 g ai/ha, scale 0 to 100 (0 no effect, 100 complete control)
[7] = 250 g ai/ha, scale 0 to 100, 0 no effect, 100 complete control, 13 to 15 days
[8] = Postemergence, 125 g ai/ha, 0 to 100 scale where 0 is no effect and 100 is complete control
[9] = Postemergence, 500 g ai/ha, 0 is no effect, 100 is complete control
[10] = Preemergence, 125 g ai/ha, 0 no effect, 100 complete control
[11] = Preemergence, 500 g ai/ha, 0 no effect, 100 complete control

CCc1cc[n+]([O-])c(S(=O)(=O)Cc2c(C(F)(F)F)nn(C)c2OC(F)F)c1 [Compound 102]
Galium plant response rating (catchweed bedstraw; [2]): 95 | Galium plant response rating (catchweed bedstraw; [3]): 100 | Plant response rating, Galium (catchweed bedstraw; [4]): 30 | Galium plant response rating (catchweed bedstraw; [5]): 100 | Kochia plant response rating (kochia; [2]): 70 | Kochia plant response rating (kochia; [3]): 100 | Plant response rating, Kochia (kochia; [4]): 70 | Kochia plant response rating (kochia; [5]): 100 | Blackgrass plant response rating (blackgrass; [2]): 80 | Blackgrass plant response rating (blackgrass; [3]): 80 | Plant response rating, Blackgrass (blackgrass; [4]): 10 | Crabgrass, Large plant response rating (crabgrass; [2]): 95 | Crabgrass, Large plant response rating (crabgrass; [3]): 95 | Plant response rating, Crabgrass, Large (crabgrass; [4]): 70 | Crabgrass, Large plant response rating (crabgrass; [5]): 100 | Plant response rating, Rice (rice; [6]): 0 | Plant response rating, Rice (rice; [7]): 20 | Wheat plant response rating (wheat; [2]): 0 | Wheat plant response rating (wheat; [3]): 40 | Plant response rating, Wheat (wheat; [4]): 0 | Wheat plant response rating (wheat; [5]): 90 | Plant response rating, Corn (corn; [8]): 40 | Corn plant response rating (corn; [9]): 50 | Corn plant response rating (corn; [10]): 0 | Corn plant response rating (corn; [11]): 0 | Plant response rating, Pigweed (redroot pigweed; [8]): 70 | Pigweed plant response rating (redroot pigweed; [9]): 100 | Pigweed plant response rating (redroot pigweed; [10]): 100 | Pigweed plant response rating (redroot pigweed; [11]): 100 | Oat, Wild plant response rating (wild oat; [2]): 70 | Oat, Wild plant response rating (wild oat; [3]): 90 | Plant response rating, Oat, Wild (wild oat; [4]): 35 | Oat, Wild plant response rating (wild oat; [5]): 95 | Plant response rating, Barnyardgrass (barnyardgrass; [6]): 0 | Plant response rating, Barnyardgrass (barnyardgrass; [7]): 0 | Velvetleaf plant response rating (velvetleaf; [2]): 30 | Velvetleaf plant response rating (velvetleaf; [3]): 80 | Plant response rating, Velvetleaf (velvetleaf; [4]): 0 | Velvetleaf plant response rating (velvetleaf; [5]): 95 | Pigweed plant response rating (pigweed; [2]): 95 | Pigweed plant response rating (pigweed; [3]): 100 | Plant response rating, Pigweed (pigweed; [4]): 60 | Pigweed plant response rating (pigweed; [5]): 100 | Plant response rating, Ducksalad (duck salad; [6]): 0 | Plant response rating, Ducksalad (duck salad; [7]): 80 | Sunflower plant response rating [1, 2]: 0 | Sunflower plant response rating [1, 3]: 60 | Sunflower plant response rating [1, 5]: 80 | Surinam Grass plant response rating (Surinam grass; [2]): 70 | Surinam Grass plant response rating (Surinam grass; [3]): 70 | Plant response rating, Surinam Grass (Surinam grass; [4]): 65 | Surinam Grass plant response rating (Surinam grass; [5]): 95 | Bermudagrass plant response rating (bermudagrass; 62 g ai/ha, Preemergence, scale 0 to 100 (0 no effect, 100 complete control)): 85 | Bermudagrass plant response rating (bermudagrass; [3]): 100 | Plant response rating, Bermudagrass (bermudagrass; [4]): 85 | Bermudagrass plant response rating (bermudagrass; [5]): 100 | Nightshade plant response rating (eastern black nightshade; [2]): 90 | Nightshade plant response rating (eastern black nightshade; [3]): 95 | Plant response rating, Nightshade (eastern black nightshade; [4]): 85 | Nightshade plant response rating (eastern black nightshade; [5]): 98
